In ChEMBL document CHEMBL3112480, “γ-Alkylidene-γ-lactones and isobutylpyrrol-2(5H)-ones analogues to rubrolides as inhibitors of biofilm formation by gram-positive and gram-negative bacteria” (Bioorg Med Chem Lett, 2014):
Values after ≈ are worked out from the molar mass of the structure shown.

Key:
Staphylococcus aureus [1] = assay: Antibacterial activity against Staphylococcus aureus ATCC 25923 assessed as effect on planktonic growth at 0.68 ug/ml after 20 hrs relative to control; assay type: functional
Pseudomonas aeruginosa [2] = assay: Antibacterial activity against Pseudomonas aeruginosa ATCC 27853 assessed as inhibition of biofilm formation after 20 hrs by crystal-violet staining method; assay type: functional, organism-based
Streptococcus mutans [3] = assay: Antibacterial activity against Streptococcus mutans ATCC 25175 assessed as effect on planktonic growth at 0.17 ug/ml after 20 hrs relative to control; assay type: functional
Staphylococcus aureus [4] = assay: Antibacterial activity against Staphylococcus aureus ATCC 25923 assessed as effect on planktonic growth at 0.17 ug/ml after 20 hrs relative to control; assay type: functional
[5] = test system: Staphylococcus epidermidis; assay: Antibacterial activity against Staphylococcus epidermidis ATCC 35547 assessed as effect on planktonic growth at 0.17 ug/ml after 20 hrs relative to control; assay type: functional
Pseudomonas aeruginosa [6] = assay: Antibacterial activity against Pseudomonas aeruginosa ATCC 27853 assessed as effect on planktonic growth at 10.9 ug/ml after 20 hrs relative to control; assay type: functional
Staphylococcus aureus [7] = assay: Antibacterial activity against Staphylococcus aureus ATCC 25923 assessed as effect on planktonic growth at 1.37 ug/ml after 20 hrs relative to control; assay type: functional
Streptococcus mutans [8] = assay: Antibacterial activity against Streptococcus mutans ATCC 25175 assessed as effect on planktonic growth at 0.34 ug/ml after 20 hrs relative to control; assay type: functional
[9] = test system: Staphylococcus epidermidis; assay: Antibacterial activity against Staphylococcus epidermidis ATCC 35547 assessed as inhibition of biofilm formation after 20 hrs by crystal-violet staining method; assay type: functional, organism-based
Pseudomonas aeruginosa [10] = assay: Antibacterial activity against Pseudomonas aeruginosa ATCC 27853 assessed as effect on planktonic growth at 5.5 ug/ml after 20 hrs relative to control; assay type: functional
Pseudomonas aeruginosa [11] = assay: Antibacterial activity against Pseudomonas aeruginosa ATCC 27853 assessed as effect on planktonic growth at 0.68 ug/ml after 20 hrs relative to control; assay type: functional
Streptococcus mutans [12] = assay: Antibacterial activity against Streptococcus mutans ATCC 25175 assessed as effect on planktonic growth at 21.9 ug/ml after 20 hrs relative to control; assay type: functional
Streptococcus mutans [13] = assay: Antibacterial activity against Streptococcus mutans ATCC 25175 assessed as effect on planktonic growth at 43.8 ug/ml after 20 hrs relative to control; assay type: functional
Pseudomonas aeruginosa [14] = assay: Antibacterial activity against Pseudomonas aeruginosa ATCC 27853 assessed as effect on planktonic growth at 0.17 ug/ml after 20 hrs relative to control; assay type: functional
Pseudomonas aeruginosa [15] = assay: Antibacterial activity against Pseudomonas aeruginosa ATCC 27853 assessed as effect on planktonic growth at 0.34 ug/ml after 20 hrs relative to control; assay type: functional
Staphylococcus aureus [16] = assay: Antibacterial activity against Staphylococcus aureus ATCC 25923 assessed as effect on planktonic growth at 43.8 ug/ml after 20 hrs relative to control; assay type: functional
Streptococcus mutans [17] = assay: Antibacterial activity against Streptococcus mutans ATCC 25175 assessed as effect on planktonic growth at 0.68 ug/ml after 20 hrs relative to control; assay type: functional
Streptococcus mutans [18] = assay: Antibacterial activity against Streptococcus mutans ATCC 25175 assessed as effect on planktonic growth at 10.9 ug/ml after 20 hrs relative to control; assay type: functional
[19] = test system: Staphylococcus epidermidis; assay: Antibacterial activity against Staphylococcus epidermidis ATCC 35547 assessed as effect on planktonic growth at 1.37 ug/ml after 20 hrs relative to control; assay type: functional
Pseudomonas aeruginosa [20] = assay: Antibacterial activity against Pseudomonas aeruginosa ATCC 27853 assessed as effect on planktonic growth at 87.5 ug/ml after 20 hrs relative to control; assay type: functional
Pseudomonas aeruginosa [21] = assay: Antibacterial activity against Pseudomonas aeruginosa ATCC 27853 assessed as effect on planktonic growth at 2.73 ug/ml after 20 hrs relative to control; assay type: functional
[22] = test system: Staphylococcus epidermidis; assay: Antibacterial activity against Staphylococcus epidermidis ATCC 35547 assessed as effect on planktonic growth at 0.34 ug/ml after 20 hrs relative to control; assay type: functional
[23] = test system: Staphylococcus epidermidis; assay: Antibacterial activity against Staphylococcus epidermidis ATCC 35547 assessed as effect on planktonic growth at 87.5 ug/ml after 20 hrs relative to control; assay type: functional
Staphylococcus aureus [24] = assay: Antibacterial activity against Staphylococcus aureus ATCC 25923 assessed as effect on planktonic growth at 2.73 ug/ml after 20 hrs relative to control; assay type: functional
Pseudomonas aeruginosa [25] = assay: Antibacterial activity against Pseudomonas aeruginosa ATCC 27853 assessed as effect on planktonic growth at 43.8 ug/ml after 20 hrs relative to control; assay type: functional
[26] = test system: Staphylococcus epidermidis; assay: Antibacterial activity against Staphylococcus epidermidis ATCC 35547 assessed as effect on planktonic growth at 5.5 ug/ml after 20 hrs relative to control; assay type: functional
Streptococcus mutans [27] = assay: Antibacterial activity against Streptococcus mutans ATCC 25175 assessed as effect on planktonic growth at 1.37 ug/ml after 20 hrs relative to control; assay type: functional
Staphylococcus aureus [28] = assay: Antibacterial activity against Staphylococcus aureus ATCC 25923 assessed as effect on planktonic growth at 5.5 ug/ml after 20 hrs relative to control; assay type: functional
Staphylococcus aureus [29] = assay: Antibacterial activity against Staphylococcus aureus ATCC 25923 assessed as effect on planktonic growth at 10.9 ug/ml after 20 hrs relative to control; assay type: functional
[30] = test system: Staphylococcus epidermidis; assay: Antibacterial activity against Staphylococcus epidermidis ATCC 35547 assessed as effect on planktonic growth at 21.9 ug/ml after 20 hrs relative to control; assay type: functional
Staphylococcus aureus [31] = assay: Antibacterial activity against Staphylococcus aureus ATCC 25923 assessed as effect on planktonic growth at 0.34 ug/ml after 20 hrs relative to control; assay type: functional
[32] = test system: Staphylococcus epidermidis; assay: Antibacterial activity against Staphylococcus epidermidis ATCC 35547 assessed as effect on planktonic growth at 2.73 ug/ml after 20 hrs relative to control; assay type: functional
Staphylococcus aureus [33] = assay: Antibacterial activity against Staphylococcus aureus ATCC 25923 assessed as effect on planktonic growth at 87.5 ug/ml after 20 hrs relative to control; assay type: functional
Streptococcus mutans [34] = assay: Antibacterial activity against Streptococcus mutans ATCC 25175 assessed as effect on planktonic growth at 5.5 ug/ml after 20 hrs relative to control; assay type: functional
[35] = test system: Staphylococcus epidermidis; assay: Antibacterial activity against Staphylococcus epidermidis ATCC 35547 assessed as effect on planktonic growth at 10.9 ug/ml after 20 hrs relative to control; assay type: functional
Staphylococcus aureus [36] = assay: Induction of biofilm formation in Staphylococcus aureus ATCC 25923 at 44 ug/ml after 20 hrs by crystal-violet staining method relative to control; assay type: organism-based
Streptococcus mutans [37] = assay: Antibacterial activity against Streptococcus mutans ATCC 25175 assessed as effect on planktonic growth at 87.5 ug/ml after 20 hrs relative to control; assay type: functional
[38] = test system: Staphylococcus epidermidis; assay: Antibacterial activity against Staphylococcus epidermidis ATCC 35547 assessed as effect on planktonic growth at 43.8 ug/ml after 20 hrs relative to control; assay type: functional
Pseudomonas aeruginosa [39] = assay: Antibacterial activity against Pseudomonas aeruginosa ATCC 27853 assessed as effect on planktonic growth at 1.37 ug/ml after 20 hrs relative to control; assay type: functional
[40] = test system: Staphylococcus epidermidis; assay: Antibacterial activity against Staphylococcus epidermidis ATCC 35547 assessed as effect on planktonic growth at 0.68 ug/ml after 20 hrs relative to control; assay type: functional
Pseudomonas aeruginosa [41] = assay: Antibacterial activity against Pseudomonas aeruginosa ATCC 27853 assessed as effect on planktonic growth at 21.9 ug/ml after 20 hrs relative to control; assay type: functional
Streptococcus mutans [42] = assay: Antibacterial activity against Streptococcus mutans ATCC 25175 assessed as effect on planktonic growth at 2.73 ug/ml after 20 hrs relative to control; assay type: functional
Staphylococcus aureus [43] = assay: Antibacterial activity against Staphylococcus aureus ATCC 25923 assessed as effect on planktonic growth at 21.9 ug/ml after 20 hrs relative to control; assay type: functional

SMILES: COc1ccc(C)cc1C1=C(Br)C(=O)N(CC(C)C)/C1=C\c1ccccc1Cl
- Activity (Staphylococcus aureus [1]): -4.9%
- inhibition (Pseudomonas aeruginosa [2]): Dose-dependent effect
- IC50 (Pseudomonas aeruginosa [2]; ATCC 27853, 20 h): 5.7 µg/mL (≈ 12.4 µM)
- Activity (Streptococcus mutans [3]): -4.6%
- Activity (Staphylococcus aureus [4]): -4.2%
- Activity [5]: 4%
- Activity (Pseudomonas aeruginosa [6]): -13.8%
- Activity (Staphylococcus aureus [7]): -13.4%
- Activity (Streptococcus mutans [8]): -1.4%
- inhibition [9]: Dose-dependent effect
- IC50 ([9]; ATCC 35547, 20 h): > 87.5 µg/mL
- Activity (Pseudomonas aeruginosa [10]): -13.8%
- Activity (Pseudomonas aeruginosa [11]): -7.7%
- Activity (Streptococcus mutans [12]): 14.6%
- Activity (Streptococcus mutans [13]): 19.2%
- Activity (Pseudomonas aeruginosa [14]): -1.9%
- Activity (Pseudomonas aeruginosa [15]): -5.5%
- Activity (Staphylococcus aureus [16]): 8.9%
- Activity (Streptococcus mutans [17]): -2.1%
- Activity (Streptococcus mutans [18]): 7.8%
- Activity [19]: -4.4%
- Activity (Pseudomonas aeruginosa [20]): 0.8%
- Activity (Pseudomonas aeruginosa [21]): -6%
- Activity [22]: 17.8%
- Activity [23]: 65.8%
- Activity (Staphylococcus aureus [24]): -6.6%
- Activity (Pseudomonas aeruginosa [25]): -11.1%
- Activity [26]: 3.3%
- Activity (Streptococcus mutans [27]): -0.4%
- Activity (Staphylococcus aureus [28]): -12%
- Activity (Staphylococcus aureus [29]): -13.4%
- Activity [30]: 31.7%
- Activity (Staphylococcus aureus [31]): -3.3%
- Activity [32]: -5.5%
- Activity (Staphylococcus aureus [33]): 33.8%
- Activity (Streptococcus mutans [34]): 8.9%
- Activity [35]: 13.1%
- Activity (Staphylococcus aureus [36]): 3.6%
- Activity (Streptococcus mutans [37]): 49.5%
- Activity [38]: 46.4%
- Activity (Pseudomonas aeruginosa [39]): -10.6%
- Activity [40]: 3.4%
- Activity (Pseudomonas aeruginosa [41]): -13.3%
- Activity (Streptococcus mutans [42]): 3.9%
- Activity (Staphylococcus aureus [43]): -6.3%
